Laboratory results taken from patent US20220288022A1, “PHARMACEUTICAL COMPOSITION FOR TOPICAL USE THAT IS IN THE FORM OF A DISPERSED PHASE BASED ON AT LEAST ONE SHORT DIOL IN A CONTINUOUS FATTY PHASE AND COMPRISING AT LEAST ONE ANTI-INFLAMMATORY SUBSTANCE” (SOCIETE D'EXPLOITATION DE PRODUITS POUR LES INDUSTRIES …, priority 2019, published 2022).

Test: Conductivity (σ) of the emulsions, characterization of the direction of the emulsion
Type: physicochemical
Conditions: measured at 25° C., neat diol
Protocol: The conductivity (σ) of the emulsions (F1) to (F3) according to the invention and of the emulsions (F′1) to (F′3) is measured at 25° C., after a period of storage of said emulsions of one day in an insulated climatic chamber regulated at a temperature of 25° C., by means of an LF 196™ brand conductivity meter from the company WTW equipped with a TetraCon™ 96 electrode. If, for a given emulsion, (σ)≤0.5 μS.cm^−1, the emulsion is considered to be non-conductive and consequently the external phase is not the phase based on 1,2-propanediol but the oily phase. Indeed, the conductivity, measured at 25° C., of 1,2-propanediol is equal to 4400 μS.cm^−1. If, for a given emulsion, (σ)>0.5 μS.cm^−1, the emulsion is considered to be conductive and consequently the external phase is not the oily phase but the phase based on 1,2-propanediol or glycerol or PEG-400. This same measurement of the conductivity of the emulsions (F1) to (F3) according to the invention and of the comparative emulsions (F′1) to (F′3) is measured at 25° C. after three months at 25° C., and after three months at 45° C.

In the case of `CC(O)CO` (stereo not shown) [1,2-propanediol], the “conductivity of 1,2-propanediol” value is reported as 4400 μS.cm^−1.
